Data reported in PubChem BioAssay AID463229 (Broad Institute, 2010).
Values joined by “and” are separate entries in the source; they are usually repeats but may differ in a detail not shown here. Equal values may be shown once. Active and inactive are the calls of the source.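 The calls were made as follows: active = compounds raising the signal whose fitted half-maximal concentration is at or below their top tested dose (cut at about 25 µM in these data); inconclusive = flat fit at 30 to 70% activity, or a poor fit; inactive = the rest.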

System: INS-1E rat beta cells, no cytokines, CellTiter-Glo ATP, 48 h
Experiment: cytokine-free beta-cell viability effect – INS-1E rat cells, ATP luminescence, cherry pick, counter-screen for beta-cell apoptosis protection project, dose response (AID 463229)

| Structure (SMILES) | AC50 |
| --- | --- |
| CC(C)OCCCNc1ncnc2c1[nH]c1ccccc12 | 4.34 µM |
| Cc1ccc(C2=CC(c3ccc(N(C)C)cc3)n3nnnc3N2)cc1 (stereo not drawn) | 6.72 µM |
| COc1cc(CC(=O)Nc2nc(-c3ccc(F)c(F)c3)cs2)cc(OC)c1OC | 7.17 µM |
| CCOc1ccc(/C=N/NC(=O)c2[nH]ncc2Br)c(O)c1 | 3.66 µM |
| Cc1cc(Nc2nc3ccccc3nc2Cl)n(-c2ccc([N+](=O)[O-])cc2)n1 | 12 µM |
| Oc1ccc(-[n+]2c(-c3ccccc3)cc(-c3ccccc3)cc2-c2ccccc2)cc1 | 3.96 µM |
| CC(=O)c1cccc(NS(=O)(=O)c2ccc(N/C=C\C(=O)c3ccc(F)cc3)cc2)c1 | 4.97 µM |
| O=C(c1cc(COc2cccc(C(F)(F)F)c2)on1)N1CCC(c2ccncc2)CC1 | 7.14 µM |
| Cc1ccc(S(=O)(=O)NCc2ccncc2)cc1C | 4.92 µM |
| Cc1cc(C)c2sc(NNC(=O)c3ccc(S(=O)(=O)N4CCc5ccccc5C4)cc3)nc2c1 | 3.38 µM |
| Cc1cccc(NC(=O)/C=C/c2ccc([N+](=O)[O-])s2)c1 | 8.56 µM |
| Cc1ccc2[nH]c3c(N4CCc5ccccc5C4)ncnc3c2c1 | 2.58 µM |
| O=C(N/N=C/c1cc(Cl)ccc1O)c1cccnc1 | 8.72 µM |
| CC(C)(C)c1nnc(N/N=C/c2cc(Br)ccc2O)n(N)c1=O | 3.97 µM |
| COC(=O)c1ccccc1NC1=C/C(=N\S(=O)(=O)c2cccs2)c2ccccc2C1=O | 8.33 µM |
| CCCCCCCC[n+]1cccc2c3ccccc3ccc21 | 0.273 µM |
| N/C(=N\OC(=O)c1cccc(Cn2cc(C(F)(F)F)ccc2=O)c1)c1ccc(Cl)cc1 | 8.25 µM |
| Cc1cc(-c2ccccc2)cc(-c2ccccc2)[n+]1CCc1ccccc1 | < 0.195 µM |
| O=C(Nc1nc(-c2ccccn2)cs1)c1ccc(Cl)s1 | 4.38 µM |
| C=CCSc1nc2ccccc2n1C(=O)/C=C/c1ccc(OC)c(OC)c1 | 11 µM |
| Cc1cc(N/N=C/c2cccc(Cl)c2)nc(-n2nc(C)cc2C)n1 | 16.4 µM |
| C/C(=N\NC(=O)c1c(C)nc2ccccn12)c1ccc(O)cc1O | 19.5 µM |
| CCCCCCCCNc1ncnc2ccccc12 | 0.384 µM |

| Structure (SMILES) | AC50 |
| --- | --- |
| O=C(Nc1cc(Sc2ccccn2)cc([N+](=O)[O-])c1)c1ccc(Cl)cc1 | 8.9 µM |
| CC(C)(C)c1cnnn1-c1ccc(/C=N/Nc2ccc([N+](=O)[O-])cc2)cc1 | 7.77 µM |
| Cc1ccc(C)c(S(=O)(=O)N2CCN(Cc3ccc(O)c4ncccc34)CC2)c1 | 5.74 µM |
| COc1ccc(CNCCC(c2ccccc2)c2ccc3c(c2)OCO3)cc1 (stereo not drawn) | 15.2 µM |
| Brc1ccc(-[n+]2c(-c3ccccc3)cc(-c3ccccc3)cc2-c2ccccc2)cc1 | 2.4 µM |
| c1ccc(-c2nc3nonc3nc2-c2ccccc2)cc1 | 11.1 µM |
| CC(=O)C1=C(c2ccc(Br)cc2)C(=O)c2ccccc2C1=O | 3.63 µM |
| O=C(Nc1ccc(OC(F)(F)F)cc1)Nc1cccc([N+](=O)[O-])c1 | 3.8 µM |
| COc1ccc(OC)c(NC(=O)c2nc(S(=O)(=O)Cc3ccccc3)ncc2Cl)c1 | 7.87 µM |
| COc1ccc(S(=O)(=O)/N=C2\C=C(Nc3ccc(O)cc3)C(=O)c3ccccc32)cc1 | 1.65 µM |
| Cc1[nH]n(-c2ccc(Br)cc2)c(=O)c1/C=N/NC(=O)c1ccccc1 | 2.13 µM |
| CCOc1ccc(-n2c(O)c(/C=N/Nc3nc(C)cc(C)n3)c3ccccc3c2=O)cc1 | 6.38 µM |
| Cn1c(=O)[nH]c(=O)c2c1nc(N1CCN(C(c3ccccc3)c3ccccc3)CC1)n2CCO | 10.8 µM |
| O=C(NNc1ccnc2cc(Cl)ccc12)C1CCCCC1 | 2.53 µM |
| O=C(/C=C/c1ccc(-c2ccccc2)cc1)NCc1cccnc1 | 9.36 µM |
| COc1ccc(C)cc1Nc1n[n+](-c2ccccc2)c(-c2c(OC)ccc3ccccc23)s1 | 6.88 µM |
| O=c1c2c(nc3c(-c4ccc(Cl)cc4)c[nH]n13)CCCC2 | 7.43 µM |
| CCCCCc1ccc(OCCCC[n+]2ccc(C)cc2)c(CCCCC)c1 | 2.34 µM |
| CC(C)C(=O)NC(=S)/C=C1/N(C)c2ccccc2C1(C)C | 7.7 µM |
| CN(Cc1c(F)cccc1Cl)C(=O)c1cc2ccccc2o1 | > 26 µM (inactive) |
| c1ccc(CCNc2ncnc3ccccc23)cc1 | 1.71 µM |
| C(=N\Nc1nncc2ccccc12)/c1ccccn1 | 4.47 µM |
| COc1cc2ccccc2cc1C(=O)Nc1sc2c(c1C(N)=O)CCN(C(C)C)C2 | 9.16 µM |

| Structure (SMILES) | AC50 |
| --- | --- |
| CC(=O)CSc1ccc(-c2nc3ccccc3[nH]2)cn1 | 6.38 µM |
| O=C(Nc1ccc(C(=O)Nc2ccccc2Cl)cc1)c1cccnc1 | 1.85 µM |
| Cc1sc2ncnc(NCc3cccs3)c2c1C | 6.4 µM |
| C/C(=N\Nc1ccc2nncn2n1)c1ccccn1 | 2.72 µM |
| Oc1c(Br)cc(Br)cc1/C=N/Nc1ccc(Cl)nn1 | 1.21 µM |
| COc1cccc(/C=N/NC(=O)c2cc(-c3ccccn3)nc3ccccc23)c1O | 7.61 µM |
| COc1ccc(OC)c2[nH]c(C(=O)N/N=C/c3ccccc3O)cc12 | 7.58 µM |
| Nc1nc(N)c2cc(Sc3ccc4ccccc4c3)ccc2n1 | 2.09 µM |
| COc1ccc(-c2n(Cc3ccccc3)c3ccccc3[n+]2Cc2ccccc2)cc1 | 3.95 µM |
| O=C1C=C(Nc2ccc(O)cc2)C(=O)c2ccccc21 | 13.6 µM |
| O=C(Nc1cccc(S(=O)(=O)Nc2ccc(Cl)cc2)c1)c1ccc(Cl)nc1 | 4.6 µM |
| O=C(NC1=C(Nc2ccc(Cl)cc2)C(=O)c2ccccc2C1=O)c1ccccc1 | 21.8 µM |
| O=C(N/N=C/c1c(O)ccc2ccccc12)c1cccnc1 | 4.07 µM |
| Cc1ccc(C)c(S(=O)(=O)N2CCN(c3ncnc4sccc34)CC2)c1 | 4.53 µM |
| CCOC(=O)c1cnc(-n2nc(C)cc2C)nc1NNc1cc(C)nc(-c2ccccc2)n1 | 7.19 µM |
| Cc1ccc(/C=N/NC(=O)c2c(-c3ccccc3)noc2C)c(O)c1 | 7.91 µM |
| CCOC(=O)N1CCN(c2ncnc3c2[nH]c2ccc(F)cc23)CC1 | 6.43 µM |
| COc1ccc(-c2ccc3c(c2)S(=O)(=O)c2cccc(C(=O)NCCOc4ccccc4Cl)c2C3=O)cc1OC | 3.5 µM |
| CC1(C)Cc2c(c(N3CCOCC3)nc3sc4c(NN)ncnc4c23)CS1 | 6.38 µM |
| Cc1ccnc(NC(=O)c2ccc([N+](=O)[O-])s2)c1 | 8.41 µM |
| CCN(CC)CCCNC1=C(Cl)C(=O)c2ccccc2C1=O | 13.1 µM |
| CC(=O)c1c(C)[nH]c(C(=O)OCC(=O)Nc2ccc(Cl)cc2[N+](=O)[O-])c1C | 2.82 µM |
| COc1cc(CNC2CCCC2)cc(Cl)c1OCc1ccccc1Cl | 14.6 µM |

| Structure (SMILES) | AC50 |
| --- | --- |
| O=S(=O)(c1ccc(NC(=S)NCc2cccnc2)cc1)N1CCCCC1 | 1.62 µM |
| CCCCCCCCCCn1c2c(c(=N)c3c1CCC3)CCC2 | < 0.195 µM |
| CCc1ccc(-c2nn(-c3ccccc3)cc2CSC(=N)N)cc1 | 8.32 µM |
| Cc1ccc(C(=O)N2N=C(c3ccc(Br)cc3)CC2c2ccccc2O)cc1 (stereo not drawn) | 7.3 µM |
| Cc1ccc(O)c(N=Nc2nccs2)c1 | 7.04 µM |
| CCC[N+]1(CC#CCC(c2ccccc2)c2ccccc2)CCCCC1 | 2.03 µM |
| O=C(NCc1cccnc1)Nc1ccc([N+](=O)[O-])cc1 | 11.8 µM |
| CCCCOCCCNc1ncnc2c1[nH]c1ccccc12 | 2.24 µM |
| Nc1nonc1-n1nnc(C(=O)N/N=C/c2cc(Cl)ccc2O)c1CN1CCCCCC1 | 10.5 µM |
| CC1(C)N=C(N)N=C(N)N1c1ccc(OCCCOc2ccccc2)c(Cl)c1 | 0.913 µM |
| Cc1cc(C)n(-c2nc(NCCO)c3c4c(sc3n2)CCCC4)n1 | > 26 µM (inactive) |
| CCCCCCC[N+](CC)(CC)CCCCc1ccc(Cl)cc1 | 4.93 µM |
| O=C(N/N=C/c1cc(Br)c(Br)s1)c1ccncc1 | 9.72 µM |
| CC1CCC(C(C)C)C(OC(=O)Cn2c(-c3ccccc3)[n+](C)c3ccccc32)C1 (stereo not drawn) | 2.76 µM and 3.37 µM |
| c1ccc(CNc2c(-c3cccc(SC4CCCCC4)c3)nc3ccccn23)cc1 | 2.98 µM |
| O=c1cnnc(N/N=C/c2ccccn2)[nH]1 | 3.93 µM |
| CCN(CC)c1ccc(/C=N/NC(=O)CCC(=O)NCc2ccccc2)c(O)c1 | 7.22 µM |
| c1ccc2c(CNC3CCCCC3)c[nH]c2c1 | 6.79 µM |
| COc1ccc(N/N=C(/N=Nc2nc(C)cc(=O)[nH]2)c2ccccc2)cc1 | 1.78 µM |
| CCCCCn1c(=O)c(C(=O)NC(C)c2ccccc2)c(O)c2ccccc21 (stereo not drawn) | 4.19 µM |
| COc1ccc(C2c3ccc4ccccc4c3Oc3ncn(CCCN(C)C)c(=N)c32)cc1 (stereo not drawn) | 8.02 µM |
| COc1cc(/C=C2\CC/C(=C\c3cc(OC)c(O)c(OC)c3)C2=O)cc(OC)c1O | 4.29 µM |
| Cc1ccc(S(=O)(=O)NCc2ccncc2)c(C)c1C | 3.83 µM |

| Structure (SMILES) | AC50 |
| --- | --- |
| COc1ccc(-c2c[n+]3c(n2-c2ccccc2)CCCCC3)cc1 | 2.35 µM |
| COc1ccc(C2/C=C\CN(C(=O)c3ccccc3)[C@H](Cc3ccccc3)C(=O)N2Cc2ccc(F)cc2)cc1 (stereo partly drawn) | 7.75 µM |
| Cc1ccc(S(=O)(=O)N2CCN(c3ncnc4sccc34)CC2)cc1 | 8.15 µM |
| O=C(NCc1cccnc1)/C(=C/c1ccc(-c2cccc(Cl)c2)o1)S(=O)(=O)c1ccccc1 | 4.93 µM |
| COc1ccccc1OCCCCOc1ccccc1C(C)=O | 23 µM |
| CCOC(=O)N1CCN(Cc2cc(Cl)c3cccnc3c2O)CC1 | 13.2 µM |
| CCC1CCCCN1C(=O)c1cc(COc2ccc(-n3cncn3)cc2)on1 (stereo not drawn) | 16.5 µM |
| O=C(N/N=C/c1ccccc1O)/C(=C/c1ccccc1)CCO | 7.67 µM |
| O=C(Nc1cccc([N+](=O)[O-])c1)c1cc2ccccc2cc1O | 4.38 µM |
| CCC(C)Sc1ccc(-c2nc3ccc(C)cn3c2NCc2ccccc2)cc1OC (stereo not drawn) | 6.46 µM |
| COc1ccc2cc(C(=O)N/N=C/c3sc4ccccc4c3O)ccc2c1 | 7.3 µM |
| COc1ccc(/C=C/C(=O)c2ccc([N+](=O)[O-])o2)cc1 | 12.5 µM |
| CCOC(=O)C1CCCN(S(=O)(=O)c2ccc(S(=O)(=O)N(CC)CC)cc2)C1 (stereo not drawn) | 3.8 µM |
| CCCCCn1c(=O)c(C(=O)NCc2ccccc2Cl)c(O)c2ccccc21 | 6.84 µM |
| O=C(NCCc1ccccc1)[C@@H]1CC=C[C@@H]2CCN(Cc3ccc(Cl)c(Cl)c3)C(=O)[C@@H]21 | 13.2 µM |
| CCCCCCn1ccc(=N)cc1 | 3.12 µM |
| CCc1cc[n+](C2=C([O-])c3ccccc3C(=O)/C2=N\S(=O)(=O)c2cccs2)cc1 | 9.35 µM |
| O=[N+]([O-])c1ccc(S(=O)(=O)c2ccccc2)nc1 | 10.6 µM |
| S=c1[nH]nc(-c2cc(-c3ccccc3)n[nH]2)n1/N=C/C(Br)=C/c1ccccc1 | 8.81 µM |
| CCCCC1CCC(C(=O)N(CC(C)C)c2c(N)n(Cc3ccccc3)c(=O)[nH]c2=O)CC1 (stereo not drawn) | 6.87 µM |
| Cc1cccc(/C=N/NC(=O)c2ccc3c(c2)OCCO3)c1O | 7.38 µM |
